One experiment deals with D. immitis microfilariae. As to the kind of experiment: Dirofilaria immitis, microfilariae (DiMF) in vitro motility assay. Type of experiment: cell-based. The settings on record: Dirofilaria immitis, 72 h, read-out: DiMF minimally effective dose (MEC).
For a further experiment, the system named is Haemonchus contortus L3. As to the kind of experiment: microbe, parasite or virus in culture. Type of experiment: cell-based. The settings on record: Haemonchus contortus, 96 h, read-out: HcL3 Minimal Effective Concentration (MEC).
For experiment [1], the system named is Trichostrongylus colubriformis. As to the kind of experiment: Jird efficacy model. The settings on record: Trichostrongylus colubriformis, sc, 96 h, read-out: Jird % (percentage efficacy). Format: in vivo.

These results are taken from patent publication US10570129B2 (Zoetis Services LLC, priority 2015, dated 2020).

Take `N#Cc1ccc2c3c(n(C(=O)NCc4ccnc(Cl)c4)c2c1)CCN(C/C=C/c1ccc(Cl)cc1F)C3` [Example 7, (E)-2-(3-(4-chloro-2-fluorophenyl)allyl)-N-((2-chloropyridin-4-yl)methyl)-7-cyano-1,2,3,4-tetrahydro-5H-pyrido[4,3-b]indole-5-carboxamide]: the minimal effective concentration with D. immitis microfilariae is 10 µM; in the experiment with Haemonchus contortus L3, 2.4 µM. Also, the inhibition in vivo at 10 mg/kg in experiment [1] came to 100%.

Consider `N#Cc1ccc2c3c(n(C(=O)NCc4ccnc(Cl)c4)c2c1)CCN(C/C=C/c1c(F)cc(F)cc1F)C3` [Example 9, (E)-N-((2-chloropyridin-4-yl)methyl)-7-cyano-2-(3-(2,4,6-trifluorophenyl)allyl)-1,2,3,4-tetrahydro-5H-pyrido[4,3-b]indole-5-carboxamide], for which the minimal effective concentration was 5.7 µM with D. immitis microfilariae and 7.6 µM in the experiment with Haemonchus contortus L3. In addition, the inhibition in vivo at 10 mg/kg in experiment [1] was determined as 99%.

As for `N#Cc1ccc2c3c(n(C(=O)NCc4ccnc(Cl)c4)c2c1)CCN(C/C=C/c1ccc(F)c(F)c1F)C3` [Example 13, (E)-N-((2-chloropyridin-4-yl)methyl)-7-cyano-2-(3-(2,3,4-trifluorophenyl)allyl)-1,2,3,4-tetrahydro-5H-pyrido[4,3-b]indole-5-carboxamide], the results for the minimal effective concentration with D. immitis microfilariae and in the experiment with Haemonchus contortus L3 were 10 µM and 1.8 µM, respectively. Further, the inhibition in vivo at 10 mg/kg in experiment [1] is 100%.

As to `N#Cc1ccc2c3c(n(C(=O)NCc4ccnc(Cl)c4)c2c1)CCN(C/C=C/c1cc(F)c(F)c(F)c1)C3` [Example 29, (E)-N-((2-chloropyridin-4-yl)methyl)-7-cyano-2-(3-(3,4,5-trifluorophenyl)allyl)-1,2,3,4-tetrahydro-5H-pyrido[4,3-b]indole-5-carboxamide], the minimal effective concentration worked out at 1.8 µM in the experiment with D. immitis microfilariae and 0.7 µM in the experiment with Haemonchus contortus L3. The inhibition in vivo at 10 mg/kg in experiment [1] stood at 99%.

For the compound `N#Cc1ccc2c3c(n(C(=O)NCc4ccnc(Cl)c4)c2c1)CCN(C/C=C/c1cc(F)cc(F)c1)C3` [Example 30, (E)-N-((2-chloropyridin-4-yl)methyl)-7-cyano-2-(3-(3,5-difluorophenyl)allyl)-1,2,3,4-tetrahydro-5H-pyrido[4,3-b]indole-5-carboxamide], the minimal effective concentration was determined as 10 µM in the experiment on D. immitis microfilariae and 0.5 µM in the experiment with Haemonchus contortus L3. The inhibition in vivo at 10 mg/kg in experiment [1] is 100%.

As for `N#Cc1ccc2c3c(n(C(=O)NCc4ccnc(Cl)c4)c2c1)CCN(C/C=C/c1cccc(F)c1F)C3` [Example 32, (E)-N-((2-chloropyridin-4-yl)methyl)-7-cyano-2-(3-(2,3-difluorophenyl)allyl)-1,2,3,4-tetrahydro-5H-pyrido[4,3-b]indole-5-carboxamide], the minimal effective concentration in the experiment on D. immitis microfilariae stood at 18.2 µM; with Haemonchus contortus L3, 1.8 µM. Also, in experiment [1], the inhibition in vivo at 10 mg/kg was determined as 100%.

As to `N#Cc1ccc2c3c(n(C(=O)NCc4ccnc(Cl)c4)c2c1)CCN(C/C=C/c1ccc(Cl)c(Cl)c1)C3` [Example 35, (E)-N-((2-chloropyridin-4-yl)methyl)-7-cyano-2-(3-(3,4-dichlorophenyl)allyl)-1,2,3,4-tetrahydro-5H-pyrido[4,3-b]indole-5-carboxamide], the values for the minimal effective concentration in the experiment with D. immitis microfilariae and with Haemonchus contortus L3 were 33 µM and 3.3 µM, respectively. Further, the inhibition in vivo at 10 mg/kg in experiment [1] was 100%.

Turning to `N#Cc1ccc2c3c(n(C(=O)NCc4ccnc(Cl)c4)c2c1)CCN(C/C=C/c1ccc(F)cc1)C3` [Example 36, (E)-N-((2-chloropyridin-4-yl)methyl)-7-cyano-2-(3-(4-fluorophenyl)allyl)-1,2,3,4-tetrahydro-5H-pyrido[4,3-b]indole-5-carboxamide], the values for the minimal effective concentration with D. immitis microfilariae and in the experiment with Haemonchus contortus L3 were 3.3 µM and 5.7 µM, respectively. In addition, the inhibition in vivo at 10 mg/kg in experiment [1] is 100%.

As for `N#Cc1ccc2c3c(n(C(=O)NCc4ccnc(Br)c4)c2c1)CCN(C/C=C/c1ccc(Cl)c(F)c1)C3` [Example 41, (E)-N-((2-bromopyridin-4-yl)methyl)-2-(3-(4-chloro-3-fluorophenyl)allyl)-7-cyano-1,2,3,4-tetrahydro-5H-pyrido[4,3-b]indole-5-carboxamide], the figures for the minimal effective concentration in the experiment with D. immitis microfilariae and with Haemonchus contortus L3 were 5.7 µM and 0.3 µM, respectively. For the same compound, in experiment [1], the inhibition in vivo at 10 mg/kg was found to be 100%.

On to `N#Cc1ccc2c(c1)c1c(n2C(=O)NCc2ccnc(Cl)c2)CCN(C/C=C/c2ccc(F)cc2F)C1` [Example 88, (E)-N-((2-chloropyridin-4-yl)methyl)-8-cyano-2-(3-(2,4-difluorophenyl)allyl)-1,2,3,4-tetrahydro-5H-pyrido[4,3-b]indole-5-carboxamide], for which the minimal effective concentration in the experiment with D. immitis microfilariae is 3.3 µM; in the experiment on Haemonchus contortus L3 it was 0.1 µM. Also, the inhibition in vivo at 10 mg/kg in experiment [1] was found to be 99%.

For the compound `N#Cc1ccc2c(c1)c1c(n2C(=O)NCc2ccnc(F)c2)CCN(C/C=C/c2cc(F)c(Cl)c(F)c2)C1` [Example 99, (E)-2-(3-(4-chloro-3,5-difluorophenyl)allyl)-8-cyano-N-((2-fluoropyridin-4-yl)methyl)-1,2,3,4-tetrahydro-5H-pyrido[4,3-b]indole-5-carboxamide], the minimal effective concentration was determined as 10 µM in the experiment with D. immitis microfilariae and 0.1 µM with Haemonchus contortus L3. In addition, in experiment [1], the inhibition in vivo at 10 mg/kg worked out at 100%.

Take `N#Cc1ccc2c(c1)c1c(n2C(=O)NCc2ccnc(F)c2)CCN(C/C=C/c2ccc(Br)cc2F)C1` [Example 102, (E)-2-(3-(4-bromo-2-fluorophenyl)allyl)-8-cyano-N-((2-fluoropyridin-4-yl)methyl)-1,2,3,4-tetrahydro-5H-pyrido[4,3-b]indole-5-carboxamide]: the minimal effective concentration in the experiment on D. immitis microfilariae was found to be 3.3 µM; in the experiment on Haemonchus contortus L3, 0.3 µM. In addition, the inhibition in vivo at 10 mg/kg in experiment [1] stood at 97%.

On to `N#Cc1ccc2c(c1)c1c(n2C(=O)NCc2ccnc(F)c2)CCN(C/C=C/c2cc(Br)ccc2F)C1` [Example 108, (E)-2-(3-(5-bromo-2-fluorophenyl)allyl)-8-cyano-N-((2-fluoropyridin-4-yl)methyl)-1,2,3,4-tetrahydro-5H-pyrido[4,3-b]indole-5-carboxamide], for which the minimal effective concentration in the experiment on D. immitis microfilariae was 3.2 µM; in the experiment with Haemonchus contortus L3, 2.4 µM. In experiment [1], the inhibition in vivo at 10 mg/kg was 100%.

Take `N#Cc1ccc2c(c1)c1c(n2C(=O)NCc2ccnc(F)c2)CCN(C/C=C/c2ccc(F)c(Br)c2)C1` [Example 109, (E)-2-(3-(3-bromo-4-fluorophenyl)allyl)-8-cyano-N-((2-fluoropyridin-4-yl)methyl)-1,2,3,4-tetrahydro-5H-pyrido[4,3-b]indole-5-carboxamide]: the minimal effective concentration in the experiment on D. immitis microfilariae turned out to be 18.2 µM; in the experiment with Haemonchus contortus L3, 1.22 µM. Moreover, the inhibition in vivo at 10 mg/kg in experiment [1] worked out at 99%.

Regarding `N#Cc1ccc2c(c1)c1c(n2C(=O)NCc2ccnc(F)c2)CCN(C/C=C/c2ccc(F)cc2F)C1` [Example 115, (E)-8-cyano-2-(3-(2,4-difluorophenyl)allyl)-N-((2-fluoropyridin-4-yl)methyl)-1,2,3,4-tetrahydro-5H-pyrido[4,3-b]indole-5-carboxamide], the minimal effective concentration in the experiment on D. immitis microfilariae worked out at 3.3 µM; in the experiment with Haemonchus contortus L3, 0.1 µM. For the same compound, the inhibition in vivo at 10 mg/kg in experiment [1] stood at 100%.

Regarding `N#Cc1ccc2c(c1)c1c(n2C(=O)NCc2ccnc(F)c2)CCN(C/C=C/c2ccc(Cl)c(Cl)c2)C1` [Example 122, (E)-8-cyano-2-(3-(3,4-dichlorophenyl)allyl)-N-((2-fluoropyridin-4-yl)methyl)-1,2,3,4-tetrahydro-5H-pyrido[4,3-b]indole-5-carboxamide], the results for the minimal effective concentration in the experiment with D. immitis microfilariae and in the experiment with Haemonchus contortus L3 were 18.2 µM and 1 µM, respectively. Further, the inhibition in vivo at 10 mg/kg in experiment [1] was determined as 100%.

On to `N#Cc1ccc2c(c1)c1c(n2C(=O)NCc2ccnc(F)c2)CCN(C/C=C/c2ccc(F)cc2)C1` [Example 123, (E)-8-cyano-2-(3-(4-fluorophenyl)allyl)-N-((2-fluoropyridin-4-yl)methyl)-1,2,3,4-tetrahydro-5H-pyrido[4,3-b]indole-5-carboxamide], for which the minimal effective concentration in the experiment on D. immitis microfilariae came out at 10 µM; in the experiment with Haemonchus contortus L3, 0.3 µM. Also, the inhibition in vivo at 10 mg/kg in experiment [1] came out at 100%.

As for `N#Cc1ccc2c(c1)c1c(n2C(=O)NCc2ccnc(C(F)(F)F)c2)CCN(C/C=C/c2ccc(Cl)cc2F)C1` [Example 128, (E)-2-(3-(4-chloro-2-fluorophenyl)allyl)-8-cyano-N-((2-(trifluoromethyl)pyridin-4-yl)methyl)-1,2,3,4-tetrahydro-5H-pyrido[4,3-b]indole-5-carboxamide], the minimal effective concentration with D. immitis microfilariae was determined as 0.7 µM; in the experiment with Haemonchus contortus L3, 0.1 µM. The inhibition in vivo at 10 mg/kg in experiment [1] was found to be 100%.

As for `O=C(NCc1ccnc(Cl)c1)n1c2c(c3ccc(C(F)(F)F)cc31)CN(C/C=C/c1ccc(Cl)c(F)c1)CC2` [Example 152, (E)-2-(3-(4-chloro-3-fluorophenyl)allyl)-N-((2-chloropyridin-4-yl)methyl)-7-(trifluoromethyl)-1,2,3,4-tetrahydro-5H-pyrido[4,3-b]indole-5-carboxamide], the values for the minimal effective concentration in the experiment on D. immitis microfilariae and in the experiment with Haemonchus contortus L3 were 3.3 µM and 1 µM, respectively. The inhibition in vivo at 10 mg/kg in experiment [1] stood at 99%.

On to `N#Cc1ccc(/C=C/CN2CCc3c(c4ccc(C(F)(F)F)cc4n3C(=O)NCc3ccnc(Cl)c3)C2)cc1` [Example 155, (E)-N-((2-chloropyridin-4-yl)methyl)-2-(3-(4-cyanophenyl)allyl)-7-(trifluoromethyl)-1,2,3,4-tetrahydro-5H-pyrido[4,3-b]indole-5-carboxamide], for which the minimal effective concentration in the experiment on D. immitis microfilariae stood at 22.6 µM; in the experiment with Haemonchus contortus L3, 1 µM. The inhibition in vivo at 10 mg/kg in experiment [1] is 100%.

Take `O=C(NCc1ccnc(Cl)c1)n1c2c(c3ccc(C(F)(F)F)cc31)CN(C/C=C/c1ccc(Cl)cc1)CC2` [Example 156, (E)-2-(3-(4-chlorophenyl)allyl)-N-((2-chloropyridin-4-yl)methyl)-7-(trifluoromethyl)-1,2,3,4-tetrahydro-5H-pyrido[4,3-b]indole-5-carboxamide]: the minimal effective concentration is 33 µM in the experiment with D. immitis microfilariae and 0.5 µM with Haemonchus contortus L3. Moreover, the inhibition in vivo at 10 mg/kg in experiment [1] amounted to 99%.
